Assay results: the supplement of paper PMC11208160

Test: recombinant UMI read abundance after kanamycin selection (control-corrected) (log10(CPM+1)); higher = more efficient recombination; extreme values may be limits of the assay; sequences stand for … in AGTGCAGAGAAAATCGGCCAGTTTTCTCTGCCTGCAGTCCGCATGCCGTGGGACCCCTTGGGTTCTAACCTGTTGCCTAGATTTATGCAGCGGACTGCCTTTCTCCCAAAGTGATAAACCGG…AGGTTGGTTTCACT; site = the 11-nt donor
Method in brief: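 Sequencing read counts were converted to CPM, averaged over two replicates and scaled by control-derived factors. Results are given as log10(CPM+1). The reads covered the donor–target junction of recombinant UMIs from a pooled Escherichia coli screen of donor and donor-binding-loop pairs for the IS621 bridge recombinase.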
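Also: IS621 bridge recombinase in Escherichia coli cells against a fixed T5 target plasmid.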

Q: For “TACCTTACATGGACCGGTTTTCCCGGTAATCCGTATTTGCG (site TACCTTACTCG)”, which “recombinant UMI read abundance (log10)” value is on record?
A: 0.0203

Q: With “TACGATGCATGGACCGGTTTTCCCGGTAATCCGTATTTGCT (site TACGATGCTAG)” as the sequence, how does the “recombinant UMI read abundance (log10)” value read?
A: 1.98

Q: Which “recombinant UMI read abundance (log10)” value does the source give for “TACGCCACATGGACCGGTTTTCCCGGTAATCCGTATTTGAG (site TACGCCACTCT)” here?
A: 0.652

Q: For “TACGGTACATGGACCGGTTTTCCCGGTAATCCGTATTTGGT (site TACGGTACTAC)”, which “recombinant UMI read abundance (log10)” value is on record?
A: 0.321

Q: Which “recombinant UMI read abundance (log10)” value does the source give for “TACGTTTCATGGACCGGTTTTCCCGGTAATCCGTATTTGCC (site TACGTTTCTGG)” here?
A: 1.7

Q: Which “recombinant UMI read abundance (log10)” value does the source give for “TACTAATCATGGACCGGTTTTCCCGGTAATCCGTATTTGGG (site TACTAATCTCC)” here?
A: 0.0128

Q: For “TACTCAGCATGGACCGGTTTTCCCGGTAATCCGTATTTGGA (site TACTCAGCTTC)”, which “recombinant UMI read abundance (log10)” value is on record?
A: 0.619

Q: For “TACTCCGCATGGACCGGTTTTCCCGGTAATCCGTATTTGTC (site TACTCCGCTGA)”, which “recombinant UMI read abundance (log10)” value is on record?
A: 2.18

Q: Which “recombinant UMI read abundance (log10)” value does the source give for “TACTGACCATGGACCGGTTTTCCCGGTAATCCGTATTTGGA (site TACTGACCTTC)” here?
A: 0.0192

Q: For “TACTGACCATGGACCGGTTTTCCCGGTAATCCGTATTTGGG (site TACTGACCTCC)”, which “recombinant UMI read abundance (log10)” value is on record?
A: 0.0283

Q: Which “recombinant UMI read abundance (log10)” value does the source give for “TAGAATACATGGACCGGTTTTCCCGGTAATCCGTATTTGCA (site AAGAATACTTG)” here?
A: 0.559

Q: For “TAGAATACATGGACCGGTTTTCCCGGTAATCCGTATTTGCA (site CAGAATACTTG)”, which “recombinant UMI read abundance (log10)” value is on record?
A: 0.572

Q: Which “recombinant UMI read abundance (log10)” value does the source give for “TAGAATACATGGACCGGTTTTCCCGGTAATCCGTATTTGCA (site GAGAATACTTG)” here?
A: 0.196

Q: For “TAGAATACATGGACCGGTTTTCCCGGTAATCCGTATTTGCA (site TAAAATACTTG)”, which “recombinant UMI read abundance (log10)” value is on record?
A: 0.792

Q: Which “recombinant UMI read abundance (log10)” value does the source give for “TAGAATACATGGACCGGTTTTCCCGGTAATCCGTATTTGCA (site TACAATACTTG)” here?
A: 0.745

Q: With “TAGAATACATGGACCGGTTTTCCCGGTAATCCGTATTTGCA (site TAGAAAACTTG)” as the sequence, how does the “recombinant UMI read abundance (log10)” value read?
A: 0.00693

Q: Which “recombinant UMI read abundance (log10)” value does the source give for “TAGAATACATGGACCGGTTTTCCCGGTAATCCGTATTTGCA (site TAGAACACTTG)” here?
A: 0

Q: For “TAGAATACATGGACCGGTTTTCCCGGTAATCCGTATTTGCA (site TAGAAGACTTG)”, which “recombinant UMI read abundance (log10)” value is on record?
A: 0.00484

Q: For “TAGAATACATGGACCGGTTTTCCCGGTAATCCGTATTTGCA (site TAGAATACTAG)”, which “recombinant UMI read abundance (log10)” value is on record?
A: 0

Q: Which “recombinant UMI read abundance (log10)” value does the source give for “TAGAATACATGGACCGGTTTTCCCGGTAATCCGTATTTGCA (site TAGAATACTCG)” here?
A: 0

Q: Which “recombinant UMI read abundance (log10)” value does the source give for “TAGAATACATGGACCGGTTTTCCCGGTAATCCGTATTTGCA (site TAGAATACTGG)” here?
A: 0

Q: With “TAGAATACATGGACCGGTTTTCCCGGTAATCCGTATTTGCA (site TAGAATACTTA)” as the sequence, how does the “recombinant UMI read abundance (log10)” value read?
A: 0

Q: With “TAGAATACATGGACCGGTTTTCCCGGTAATCCGTATTTGCA (site TAGAATACTTC)” as the sequence, how does the “recombinant UMI read abundance (log10)” value read?
A: 0.0185

Q: Which “recombinant UMI read abundance (log10)” value does the source give for “TAGAATACATGGACCGGTTTTCCCGGTAATCCGTATTTGCA (site TAGAATACTTG)” here?
A: 2.18

Q: For “TAGAATACATGGACCGGTTTTCCCGGTAATCCGTATTTGCA (site TAGAATACTTT)”, which “recombinant UMI read abundance (log10)” value is on record?
A: 0

Q: Which “recombinant UMI read abundance (log10)” value does the source give for “TAGAATACATGGACCGGTTTTCCCGGTAATCCGTATTTGCA (site TAGAATCCTTG)” here?
A: 0

Q: With “TAGAATACATGGACCGGTTTTCCCGGTAATCCGTATTTGCA (site TAGAATGCTTG)” as the sequence, how does the “recombinant UMI read abundance (log10)” value read?
A: 0

Q: With “TAGAATACATGGACCGGTTTTCCCGGTAATCCGTATTTGCA (site TAGAATTCTTG)” as the sequence, how does the “recombinant UMI read abundance (log10)” value read?
A: 0

Q: With “TAGAATACATGGACCGGTTTTCCCGGTAATCCGTATTTGCA (site TAGACTACTTG)” as the sequence, how does the “recombinant UMI read abundance (log10)” value read?
A: 0.486

Q: Which “recombinant UMI read abundance (log10)” value does the source give for “TAGAATACATGGACCGGTTTTCCCGGTAATCCGTATTTGCA (site TAGAGTACTTG)” here?
A: 0.446

Q: With “TAGAATACATGGACCGGTTTTCCCGGTAATCCGTATTTGCA (site TAGATTACTTG)” as the sequence, how does the “recombinant UMI read abundance (log10)” value read?
A: 0.00714

Q: For “TAGAATACATGGACCGGTTTTCCCGGTAATCCGTATTTGCA (site TAGCATACTTG)”, which “recombinant UMI read abundance (log10)” value is on record?
A: 0.783

Q: With “TAGAATACATGGACCGGTTTTCCCGGTAATCCGTATTTGCA (site TAGGATACTTG)” as the sequence, how does the “recombinant UMI read abundance (log10)” value read?
A: 1.71

Q: Which “recombinant UMI read abundance (log10)” value does the source give for “TAGAATACATGGACCGGTTTTCCCGGTAATCCGTATTTGCA (site TAGTATACTTG)” here?
A: 1.34

Q: For “TAGAATACATGGACCGGTTTTCCCGGTAATCCGTATTTGCA (site TATAATACTTG)”, which “recombinant UMI read abundance (log10)” value is on record?
A: 0.633

Q: For “TAGAATACATGGACCGGTTTTCCCGGTAATCCGTATTTGCA (site TCGAATACTTG)”, which “recombinant UMI read abundance (log10)” value is on record?
A: 0.00888

Q: For “TAGAATACATGGACCGGTTTTCCCGGTAATCCGTATTTGCA (site TGGAATACTTG)”, which “recombinant UMI read abundance (log10)” value is on record?
A: 0

Q: Which “recombinant UMI read abundance (log10)” value does the source give for “TAGAATACATGGACCGGTTTTCCCGGTAATCCGTATTTGCA (site TTGAATACTTG)” here?
A: 0.27

Q: With “TAGACTTCATGGACCGGTTTTCCCGGTAATCCGTATTTGGT (site TAGACTTCTAC)” as the sequence, how does the “recombinant UMI read abundance (log10)” value read?
A: 1.64

Q: For “TAGACTTCATGGACCGGTTTTCCCGGTAATCCGTATTTGGT (site TAGCCTTCTAC)”, which “recombinant UMI read abundance (log10)” value is on record?
A: 0.0272

Q: With “TAGACTTCATGGACCGGTTTTCCCGGTAATCCGTATTTGGT (site TAGGCTTCTAC)” as the sequence, how does the “recombinant UMI read abundance (log10)” value read?
A: 0.329

Q: Which “recombinant UMI read abundance (log10)” value does the source give for “TAGACTTCATGGACCGGTTTTCCCGGTAATCCGTATTTGGT (site TAGTCTTCTAC)” here?
A: 0.175

Q: With “TAGAGAACATGGACCGGTTTTCCCGGTAATCCGTATTTGAG (site TAGAGAACTCT)” as the sequence, how does the “recombinant UMI read abundance (log10)” value read?
A: 1.87

Q: Which “recombinant UMI read abundance (log10)” value does the source give for “TAGAGCCCATGGACCGGTTTTCCCGGTAATCCGTATTTGCG (site TAGAGCCCTCG)” here?
A: 0.457

Q: With “TAGAGTCCATGGACCGGTTTTCCCGGTAATCCGTATTTGTA (site TAAAGTCCTTA)” as the sequence, how does the “recombinant UMI read abundance (log10)” value read?
A: 0.546

Q: For “TAGAGTCCATGGACCGGTTTTCCCGGTAATCCGTATTTGTA (site TACAGTCCTTA)”, which “recombinant UMI read abundance (log10)” value is on record?
A: 0.159

Q: Which “recombinant UMI read abundance (log10)” value does the source give for “TAGAGTCCATGGACCGGTTTTCCCGGTAATCCGTATTTGTA (site TAGAGTCCTTA)” here?
A: 1.37

Q: Which “recombinant UMI read abundance (log10)” value does the source give for “TAGAGTCCATGGACCGGTTTTCCCGGTAATCCGTATTTGTA (site TATAGTCCTTA)” here?
A: 0.132

Q: For “TAGATGACATGGACCGGTTTTCCCGGTAATCCGTATTTGCT (site TAGATGACTAG)”, which “recombinant UMI read abundance (log10)” value is on record?
A: 2.49

Q: Which “recombinant UMI read abundance (log10)” value does the source give for “TAGATTACATGGACCGGTTTTCCCGGTAATCCGTATTTGCA (site TAGAATACTTG)” here?
A: 0.304

Q: For “TAGATTACATGGACCGGTTTTCCCGGTAATCCGTATTTGCA (site TAGACTACTTG)”, which “recombinant UMI read abundance (log10)” value is on record?
A: 0.98

Q: With “TAGATTACATGGACCGGTTTTCCCGGTAATCCGTATTTGCA (site TAGAGTACTTG)” as the sequence, how does the “recombinant UMI read abundance (log10)” value read?
A: 0.616

Q: With “TAGATTACATGGACCGGTTTTCCCGGTAATCCGTATTTGCA (site TAGATTACTTG)” as the sequence, how does the “recombinant UMI read abundance (log10)” value read?
A: 1.52

Q: With “TAGCCCACATGGACCGGTTTTCCCGGTAATCCGTATTTGTT (site TAGCCCACTAA)” as the sequence, how does the “recombinant UMI read abundance (log10)” value read?
A: 0.409

Q: For “TAGCCGGCATGGACCGGTTTTCCCGGTAATCCGTATTTGTA (site TAGCCGGCTTA)”, which “recombinant UMI read abundance (log10)” value is on record?
A: 0.599

Q: For “TAGCTGGCATGGACCGGTTTTCCCGGTAATCCGTATTTGAA (site TAGCTAGCTTT)”, which “recombinant UMI read abundance (log10)” value is on record?
A: 0.588

Q: Which “recombinant UMI read abundance (log10)” value does the source give for “TAGCTGGCATGGACCGGTTTTCCCGGTAATCCGTATTTGAA (site TAGCTCGCTTT)” here?
A: 0.0161
